Assay results: US20160257697A1, “THIOPHENE-SUBSTITUTED TETRACYCLIC COMPOUNDS AND METHODS OFUSE THEREOF FOR THE TREATMENT OF VIRAL DISEASES” (priority 2013, published 2016)
Where two headings read alike, the source gives them in different places.

What was measured:
Assay in all cases: microbe, parasite or virus in culture
Format in all cases: cell-based, Hepatitis C virus (HCV)
HCV replicon 1AY93H = conditions: Replicon Assay A
In short: (§1)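 Replicon cells were seeded at 2000 cells/well with test compound in 0.5% DMSO and 5% FBS, then harvested on day 3. Replicon RNA was measured by multiplex TaqMan real-time RT-PCR, using cyclophilin RNA as the endogenous control and quantified against standard curves of HCV replicon total RNA.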

HCV replicon 1A = conditions: Replicon Assay A
In short: as §1

HCV replicon 2B = conditions: Replicon Assay A
In short: as §1

HCV replicon 1AQ30D = conditions: Replicon Assay B
HCV replicon 1B = conditions: Replicon Assay B
[1] = read-out: 1A Y93H IC50, HCV replicon 1A Y93H
[2] = read-out: 2B IC50, HCV replicon 2B
[3] = read-out: 1A Q30D IC50, HCV replicon 1A Q30D
[4] = Hepatitis C virus, read-out: 1A Y93H IC50 (nM), replicon 1AY93H
[5] = Hepatitis C virus, read-out: 2B IC50 (nM), replicon 2B
[6] = Hepatitis C virus, read-out: 1A Q30D IC50 (nM), replicon 1AQ30D
[7] = read-out: 1A Y93H IC50, replicon 1AY93H
[8] = read-out: 1A Q30D IC50, replicon 1AQ30D

Structure (SMILES)	IC50 (HCV replicon 1AY93H; [1]) [nM]	IC50 (HCV replicon 1A; HCV replicon 1A) [pM]	IC50 (HCV replicon 2B; [2]) [nM]	IC50 (HCV replicon 1AQ30D; [3]) [nM]	IC50 (HCV replicon 1A; replicon 1A) [pM]	IC50 (HCV replicon 1B; Hepatitis C virus, replicon 1B) [pM]	IC50 (HCV replicon 1AY93H; [7]) [nM]	IC50 (HCV replicon 2B; read-out: 2B IC50, replicon 2B) [nM]	IC50 (HCV replicon 1AQ30D; [8]) [nM]	also measured
COC(=O)NC(C(=O)N1CCC[C@H]1c1ncc(-c2ccc3c(c2)cc2n3C(c3cc4ccccc4s3)Oc3cc(-c4cnc([C@@H]5CCCN5C(=O)[C@@H](NC(=O)OC)C(C)C)[nH]4)cc(F)c3-2)[nH]1)C1C[C@@H](C)O[C@@H](C)C1 (single isomer, unassigned) [Compound 641]	0.0079	3.3	0.0244	0.306	–	–	–	–	–	IC50 (HCV replicon 1B; HCV replicon 1B): 1.1 pM
COC(=O)N[C@H](C(=O)N1CCC[C@@H]1c1ncc(-c2cc(F)c3c(c2)OC(c2ccc(C(C)C)s2)n2c-3cc3cc(-c4c[nH]c([C@@H]5CCCN5C(=O)[C@H](NC(=O)OC)C5C[C@@H](C)O[C@@H](C)C5)n4)ccc32)[nH]1)C(C)C (some centres unmarked) [Compound 234]	–	–	–	–	3.3	2.8	–	–	–	IC50 (HCV replicon 1AY93H; [4]): 0.004 nM; IC50 (HCV replicon 2B; [5]): 0.02 nM; IC50 (HCV replicon 1AQ30D; [6]): 0.05 nM
COC(=O)NC(C(=O)N1CCC[C@H]1c1ncc(-c2ccc3c(c2)cc2n3C(c3cc4ccccc4s3)Oc3cc(-c4cnc([C@@H]5CCCN5C(=O)[C@@H](NC(=O)OC)C5CCOCC5)[nH]4)cc(F)c3-2)[nH]1)C(C)(C)F (single isomer, unassigned) [Compound 184]	–	–	–	–	2	–	0.16	0.076	0.21	IC50 (HCV replicon 1B; replicon 1B): 2 pM
COC(=O)N[C@H](C(=O)N1CCC[C@H]1c1ncc(-c2cc(F)c3c(c2)OC(c2ccc(CC(F)(F)F)s2)n2c-3cc3cc(-c4cnc([C@@H]5CCCN5C(=O)[C@@H](NC(=O)OC)C(C)C)[nH]4)ccc32)[nH]1)C(C)C (some centres unmarked) [Compound 125]	–	–	–	–	–	1.3	–	–	–	IC50 (HCV replicon 1AY93H; [4]): 0.018 nM; IC50 (HCV replicon 1A; Hepatitis C virus, replicon 1A): 2.3 pM; IC50 (HCV replicon 2B; [5]): 0.089 nM; IC50 (HCV replicon 1AQ30D; [6]): 0.29 nM
COC(=O)NC(C(=O)N1[C@@H]2C[C@@H]2C[C@H]1c1ncc(-c2ccc3c(c2)cc2n3C(c3ccc(CC4CC4)s3)Oc3cc(-c4cnc([C@@H]5CCCN5C(=O)[C@@H](NC(=O)OC)C(C)C)[nH]4)cc(F)c3-2)[nH]1)C1CCOC(C)(C)C1 (single isomer, unassigned) [Compound 419]	0.0072	7.2	0.0132	0.0916	–	–	–	–	–	IC50 (HCV replicon 1B; HCV replicon 1B): 8.3 pM
CCc1ccc(C2Oc3cc(-c4cnc([C@@H]5CCCN5C(=O)[C@@H](NC(=O)OC)C(C)C)[nH]4)cc(F)c3-c3cc4cc(-c5cnc([C@@H]6C[C@@H](F)CN6C(=O)C(NC(=O)OC)C6CCOC(C)(C)C6)[nH]5)ccc4n32)s1 (single isomer, unassigned) [Compound 258]	–	–	–	–	1.8	2.7	0.004	0.43	1.2	–
COC(=O)NC(C(=O)N1[C@@H]2C[C@@H]2C[C@H]1c1ncc(-c2ccc3c(c2)cc2n3C(c3ccc(C4CC4)s3)Oc3cc(-c4cnc([C@@H]5CCCN5C(=O)[C@@H](NC(=O)OC)C(C)C)[nH]4)cc(F)c3-2)[nH]1)C1C[C@@H](C)O[C@@H](C)C1 (single isomer, unassigned) [Compound 271]	–	–	–	–	3.4	2.2	0.004	0.013	0.036	–
COC(=O)NC(C(=O)N1[C@@H]2C[C@@H]2C[C@H]1c1ncc(-c2ccc3c(c2)c(F)c2n3C(c3ccc(C4CC4)s3)Oc3cc(-c4cnc([C@@H]5CCCN5C(=O)[C@@H](NC(=O)OC)C(C)C)[nH]4)ccc3-2)[nH]1)C1C[C@@H](C)O[C@@H](C)C1 (single isomer, unassigned) [Compound 644]	0.005	2.57	0.0272	0.0889	–	–	–	–	–	IC50 (HCV replicon 1B; Hepatitis C virus, HCV replicon 1B): 1.3 pM
COC(=O)NC(C(=O)N1CCC[C@H]1c1ncc(-c2ccc3c(c2)cc2n3C(c3ccc(C4CC4)s3)Oc3cc(-c4cnc([C@@H]5CCCN5C(=O)[C@@H](NC(=O)OC)C(C)C)[nH]4)cc(F)c3-2)[nH]1)C1CCCCO1 (single isomer, unassigned) [Compound 340]	–	–	–	–	–	2.5	0.0207	0.0212	0.2	IC50 (HCV replicon 1A; Hepatitis C virus, replicon 1A): 1.1 pM
COC(=O)NC(C(=O)N1CCC[C@H]1c1ncc(-c2ccc3c(c2)cc2n3C(c3ccc(C4CC4)s3)Oc3cc(-c4cnc([C@@H]5CCCN5C(=O)[C@@H](NC(=O)OC)C(C)C)[nH]4)cc(F)c3-2)[nH]1)C1CCOC(C)(C)C1 (some centres unmarked) [Compound 219]	–	–	–	–	2.2	–	0.003	0.005	0.034	IC50 (HCV replicon 1B; replicon 1B): 3.2 pM
